Where “and” joins values, the source holds several entries; their conditions need not be identical. Equal values may be shown once.
Columns and labels:
[1] = Antagonist activity at human CCR10 expressed in mouse BA/F3 cells assessed as inhibition of human CCL27-dependent chemotaxis
[2] = target: T1, C-C chemokine receptor type 10 (Homo sapiens, UniProt P46092); test: Antagonist activity at human CCR10 expressed in mouse BA/F3 cells assessed as inhibition of human CCL27-dependent chemotaxis
T1 sequence (P46092 whole entry): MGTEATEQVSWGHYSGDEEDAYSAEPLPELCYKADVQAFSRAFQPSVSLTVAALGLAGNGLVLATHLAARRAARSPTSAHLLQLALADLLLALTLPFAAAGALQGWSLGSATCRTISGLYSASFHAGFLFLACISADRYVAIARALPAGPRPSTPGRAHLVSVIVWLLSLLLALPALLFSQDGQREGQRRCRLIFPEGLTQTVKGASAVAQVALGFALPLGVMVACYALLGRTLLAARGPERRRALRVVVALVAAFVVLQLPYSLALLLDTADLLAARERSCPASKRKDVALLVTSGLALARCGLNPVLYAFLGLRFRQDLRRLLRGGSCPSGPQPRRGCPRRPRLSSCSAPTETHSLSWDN

SMILES | IC50 [1] | IC50 [2] [µM]
CC1CCN(C(=O)C(CCn2ccnc2[N+](=O)[O-])NS(=O)(=O)c2cc(Cl)c(N)c(Cl)c2)CC1 (centres undefined) | 0.053 µM and 0.05 µM | –
CC1CCN(C(=O)C(CCn2cccc2C#N)NS(=O)(=O)c2cc(Cl)c(N)c(Cl)c2)CC1 (centres undefined) | – | 0.016
CC1CCN(C(=O)C(CCn2cccc2C#N)NS(=O)(=O)c2ccc3[nH]ccc3c2)CC1 (centres undefined) | 0.013 µM | –
CC1CCN(C(=O)C(CCn2ccnc2Cl)NS(=O)(=O)c2cc(Cl)c(N)c(Cl)c2)CC1 (centres undefined) | 0.251 µM | –
CC1CCN(C(=O)[C@@H](CCc2ccccc2)NS(=O)(=O)c2cc(Cl)c(N)c(Cl)c2)CC1 | 0.501 µM | –
CC1CCN(C(=O)C(CCn2nccn2)NS(=O)(=O)c2cc(Cl)c(N)c(Cl)c2)CC1 (centres undefined) | 1.26 µM | –
CC1CCN(C(=O)C(CCn2cccn2)NS(=O)(=O)c2cc(Cl)c(N)c(Cl)c2)CC1 (centres undefined) | 1.26 µM | –
Cc1ccc(S(=O)(=O)NC(CCn2cccc2C#N)C(=O)N2CCC(C)CC2)c(C)c1N (centres undefined) | 0.079 µM | –
CC1CCN(C(=O)C(CCn2cccc2C#N)NS(=O)(=O)c2ccc3cc[nH]c3c2)CC1 (centres undefined) | 0.016 µM | –

Source: BindingDB's records for doi:10.1016/j.bmcl.2016.09.047 (Boehringer Ingelheim Pharmaceuticals, 2016)
